Results from US20230167088A1, “1-PYRAZINYLPYRAZOLYL-3-OXYALKYL ACIDS AND THEIR DERIVATIVES, AND THEIR USE FOR CONTROL OF UNDESIRED PLANT GROWTH” (BAYER AKTIENGESELLSCHAFT, priority 2020, published 2023).

What was measured:
ALOMY = test: Herbicidal pre-emergence action 2a (greenhouse pots, visual scoring); assay type: in vivo, Alopecurus myosuroides; conditions: dosage 320 g/ha, visual scoring after about 3 weeks
How it was run: (§1)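 Weed and crop seeds placed in pots and covered with soil; aqueous suspension or emulsion of WP/EC formulation applied to the soil surface before emergence (600 l/ha, 0.5% additive, 320 and/or 80 g/ha). Pots kept in the greenhouse about 3 weeks; visual percentage scoring.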

STEME [1] = test: Herbicidal post-emergence action 1b (twin sowing, 1280 g/ha); assay type: in vivo, Stellaria media; conditions: dosage 1280 g/ha, visual rating about 3 weeks after treatment
How it was run: (§2)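 Greenhouse weed pairs (mono- with dicotyledonous) were treated 2–3 weeks after sowing, at one leaf, using an aqueous spray at 600 L/ha carrying 0.5% additive. Percent activity, judged by eye against untreated plants, was recorded roughly 3 weeks post-application.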

POLCO = test: Herbicidal pre-emergence action 2a (greenhouse pots, visual scoring); assay type: in vivo, Polygonum convolvulus; conditions: dosage 320 g/ha, visual scoring after about 3 weeks vs untreated controls
How it was run: as §1

ECHCG [2] = test: Herbicidal pre-emergence action 2b (doubly sown, 1280 g/ha); assay type: in vivo, Echinochloa crus-galli; conditions: doubly sown pots, dosage 1280 g/ha, visual scoring after about 3 weeks
How it was run: (§3)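 Compounds were sprayed pre-emergence as wettable powders or emulsion concentrates onto soil covering freshly sown weed seeds, two species per pot. Percent activity was judged by eye roughly 3 weeks later versus untreated plants.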

AVEFA = test: Herbicidal pre-emergence action 2a (greenhouse pots, visual scoring); assay type: in vivo, Avena fatua; conditions: dosage 320 g/ha, visual scoring after about 3 weeks
How it was run: as §1

STEME [3] = test: Herbicidal pre-emergence action 2b (doubly sown, 1280 g/ha); assay type: in vivo, Stellaria media; conditions: doubly sown pots, dosage 1280 g/ha, visual scoring after about 3 weeks
How it was run: as §3

PHBPU = test: Herbicidal post-emergence action 1a (greenhouse pots, visual rating); assay type: in vivo, Pharbitis purpurea; conditions: dosage 320 g/ha, visual rating about 3 weeks after treatment
How it was run: (§4)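 Visual scoring versus untreated plants (100% = plants dead, 0% = as control) followed roughly 3 weeks in the greenhouse after treatment. Plants grown in sandy loam pots had been sprayed on green parts at the one-leaf stage, 2–3 weeks post-sowing, with aqueous WP/EC preparations containing 0.5% additive, 600 l/ha, at 320 and/or 80 g/ha.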

ECHCG [4] = test: as above; assay type: in vivo, Echinochloa crus-galli; conditions: Dosage 320 g/ha; rated visually about 3 weeks after treatment; 100% = plants have died, 0% = like control plants
How it was run: as §4

VIOTR [5] = test: as above; assay type: in vivo, Viola tricolor; conditions: visual rating about 3 weeks after treatment
How it was run: as §4

AMARE = test: Herbicidal pre-emergence action 2b (doubly sown, 1280 g/ha); assay type: in vivo, Amaranthus retroflexus; conditions: doubly sown pots, dosage 1280 g/ha, visual scoring after about 3 weeks
How it was run: as §3

SETVI [6] = test: Herbicidal post-emergence action 1a (greenhouse pots, visual rating); assay type: in vivo, Setaria viridis; conditions: rated visually about 3 weeks after treatment, 100% = plants have died, 0% = like control plants
How it was run: as §4

VERPE [7] = test: as above; assay type: in vivo, Veronica persica; conditions: visual rating about 3 weeks after treatment
How it was run: as §4

SETVI [8] = test: Herbicidal pre-emergence action 2a (greenhouse pots, visual scoring); assay type: in vivo, Setaria viridis; conditions: dosage 320 g/ha, visual scoring after about 3 weeks vs untreated controls
How it was run: as §1

ECHCG [9] = test: as above; assay type: in vivo, Echinochloa crus-galli; conditions: dosage 320 g/ha, visual scoring after about 3 weeks
How it was run: as §1

VIOTR [10] = test: as above; assay type: in vivo, Viola tricolor; conditions: dosage 320 g/ha, visual scoring after about 3 weeks vs untreated controls
How it was run: as §1

DIGSA = test: Herbicidal post-emergence action 1a (greenhouse pots, visual rating); assay type: in vivo, Digitaria sanguinalis; conditions: Dosage 320 g/ha; rated visually about 3 weeks after treatment; 100% = plants have died, 0% = like control plants
How it was run: as §4

MATIN [11] = test: Herbicidal pre-emergence action 2b (doubly sown, 1280 g/ha); assay type: in vivo, Matricaria inodora; conditions: doubly sown pots, dosage 1280 g/ha, visual scoring after about 3 weeks
How it was run: as §3

ECHCG [12] = test: Herbicidal post-emergence action 1b (twin sowing, 1280 g/ha); assay type: in vivo, Echinochloa crus-galli; conditions: dosage 1280 g/ha, visual rating about 3 weeks after treatment
How it was run: as §2

MATIN [13] = test: Herbicidal pre-emergence action 2a (greenhouse pots, visual scoring); assay type: in vivo, Matricaria inodora; conditions: dosage 320 g/ha, visual scoring after about 3 weeks vs untreated controls
How it was run: as §1

VERPE [14] = test: as above; assay type: in vivo, Veronica persica; conditions: dosage 320 g/ha, visual scoring after about 3 weeks vs untreated controls
How it was run: as §1

C[C@H](Oc1nn(-c2cnccn2)c(-c2cncc(F)c2)c1Br)C(=O)O [Example I-37]
80%: Post-emergence action against PHBPU in % (PHBPU) | Post-emergence action against VIOTR in % (VIOTR [5]; dosage 80 g/ha) | Post-emergence action against VERPE in % (VERPE [7]; dosage 80 g/ha)
90%: Pre-emergence action against AVEFA in % (AVEFA) | Post-emergence action against ECHCG in % (ECHCG [4]) | Post-emergence action against VIOTR in % (VIOTR [5]; dosage 320 g/ha) | Post-emergence action against SETVI in % (SETVI [6]; Dosage 80 g/ha) | Post-emergence action against SETVI in % (SETVI [6]; Dosage 320 g/ha) | Post-emergence action against VERPE in % (VERPE [7]; dosage 320 g/ha) | Pre-emergence action against ECHCG in % (ECHCG [9]) | Post-emergence action against DIGSA in % (DIGSA) | Pre-emergence action against MATIN in % (MATIN [13])
100%: Pre-emergence action against ALOMY in % (ALOMY) | Post-emergence action at 1280 g/ha against STEME in % (STEME [1]) | Pre-emergence action against POLCO in % (POLCO) | Pre-emergence action at 1280 g/ha against ECHCG in % (ECHCG [2]) | Pre-emergence action at 1280 g/ha against STEME in % (STEME [3]) | Pre-emergence action at 1280 g/ha against AMARE in % (AMARE) | Pre-emergence action against SETVI in % (SETVI [8]) | Pre-emergence action against VIOTR in % (VIOTR [10]) | Pre-emergence action at 1280 g/ha against MATIN in % (MATIN [11]) | Post-emergence action at 1280 g/ha against ECHCG in % (ECHCG [12]) | Pre-emergence action against VERPE in % (VERPE [14])
